Literature values as cited in patent publication US20070196322A1, “Method of preparing the colon for virtual colonoscopy” (Braintree Laboratories Inc., priority 2005, published 2007).
Where two headings read alike, the source gives them in different places.

Test system: patient

## CC(=O)Oc1ccc(C(c2ccc(OC(C)=O)cc2)c2ccccn2)cc1 [Bisacodyl, bisacodyl]
enemas
  time to bowel movement: about 20 minutes
Oral administration of a tablet
  time to bowel movement: three to six
Oral administration of a tablet, listed as bisacodyl
  time to bowel movement: three to about six
suppositories
  time to bowel movement: about an hour
